Experimental data: patent US20220233542A1, “COMPOSITIONS AND METHODS FOR PREVENTING OR TREATING HUMAN IMMUNODEFICIENCY VIRUS ASSOCIATED PULMONARY ARTERIAL HYPERTENSION” (University of Georgia Research Foundation, priority 2019, published 2022)
Values joined by “and” are separate entries in the source; they are usually repeats but may differ in a detail not shown here. Equal values may be shown once. “Also recorded” adds a separate entry of the source.

Columns and labels:
[1] = system: TGF-β; test: Cytokine measurement in BALF (Cytokine 29-Plex Monkey Panel); format: in vivo, Macaca mulatta; conditions: both statin-treated cohorts compared to PAH+ and PAH− SIV/Untreated controls
Text: To determine if statin treatment could modify these inflammatory mediators associated with SIV-PAH, cytokine profiles in the statin-treated cohorts were compared.
Animals. 28 adult Chinese rhesus macaques (Macaca mulatta) aged 6-10 years old were obtained from national primate centers or vendors and housed in accordance with the NIH Guide for the Care and Use of Laboratory Animals in a BSL2^+ primate facility at the University of Georgia (National Research Council Committee for the Update of the Guide for the Care and Use of Laboratory Animals, Guide for the Care and Use of Laboratory Animals (8th ed.) (National Academies Press National Academy of Sciences., 2011). Prior to admission to the study, all animals were screened and found negative for simian retroviruses and preexisting cardiovascular disease. Study Design and Statin treatment. All cohorts were infected with SIVΔB670 (1:100 in PBS), tissue culture infectious dose of 50% (TCID50)=2.6×10^5), intravenously or mucosally as previously described (Tarantelli et al. (2018); Schweitzer, F. et al. (2019)). […] All procedures were approved by the University of Georgia Institutional Animal Care and Use Committee. […] Quantitative analysis of cytokines and chemokines in the plasma and BALF was performed using the Cytokine 29-Plex Monkey Panel (Invitrogen, Carlsbad, Calif.) according to the manufacturer's instructions. […]

[2] = system: right ventricle collagen deposition; test: Right ventricular collagen deposition (Masson's trichrome); format: in vivo, Macaca mulatta
Text: Moreover, increases in collagen deposition within the right ventricle (FIG. 15B, P=0.004; FIG. 15C) and small pulmonary arteries (FIG. 15D, P=0.0005) correlated with increased pulmonary pressures in SIV/Uninfected controls. Given the substantial dampening of pro-fibrotic immune phenotypes that occurs with statin treatment, right ventricular and lung periarteriolar collagen deposition were examined following statin treatment.
(§1) Animals. […] Study Design and Statin treatment. […] Hemodynamic measurements through right hearth catheterization. […] Flow Cytometry. […] Cytokine measurement in plasma and BALF. […] Whole slide images were acquired by Servicebio (Woburn, Mass.). […]

[3] = system: small pulmonary arteries collagen deposition; test: Lung periarteriolar collagen deposition (Picro-Sirius Red); format: in vivo, Macaca mulatta
[4] = system: SIV-infected rhesus macaques; test: SIV-PAH model, hemodynamics by serial right heart catheterization; format: in vivo, Macaca mulatta; conditions: for Incidence PAH ≥ 25 mm Hg 6-12 mpi: number of animals of n = 14; for Prevalence of PAH (% PAH+): n = 14, untreated 52.2
Method: To determine the effect of statin treatment on PAH, SIV-infected rhesus macaques were studied. More specifically, a non-human primate (NHP) model of HIV-associated PAH that closely mimics HIV-PAH using simian immunodeficiency virus (SIV)-infected rhesus macaques (Macaca mulatta) was used. […] Moreover, the histologic and hemodynamic manifestations of SIV-PAH closely approximate those of human PAH.
Hemodynamics were measured by serial right heart catheterizations at baseline (BL), 6 months post-infection (6 mpi), and at the end of study (10-12 mpi) (FIG. 11C, 11D). In contrast to untreated controls (Untreated/SIV Group 1), 14.3% (Table 5, 2 of 14, P=0.03) of statin-treated animals (SIV/Statin Group 2) developed elevated mean pulmonary arterial pressure (mPAP) (monkey 3316 at 25.4 mm Hg and monkey 2416 at 46.3 mm Hg) at 6 mpi (FIG. 1). Of these animals, one maintained slightly elevated mPAP until the end of the study (monkey 3316, terminal mPAP=25.7). At study termination, mPAP of monkey 2416 decreased to 21.2 mm Hg.
It was further tested whether statin treatment initiated following SIV infection could modify PAH incidence or progression (FIG. 11A, SIV/Statin Group 3; Table 6). In this cohort, 1 of 14 monkeys (Table 2, 7.1%, P=0.0097) developed PAH (animal 2916; 6 mpi mPAP=45.5) at 6 mpi.
as §1

[5] = system: CD14dimCD16+ non-classical monocytes; test: Flow cytometry of peripheral blood monocytes; format: in vivo, Macaca mulatta; conditions: both statin cohorts at 6 mpi compared to SIV-PAH+ controls
Text: (§2) Among cytokine signatures associated with the SIV-PAH, MIP-1α, TNF-α, and TGF-β have been previously associated with macrophage populations that promote fibrosis. At 6 mpi, SIV-PAH^+ animals had higher numbers of peripheral blood CD14^dimCD16^+ non-classical monocytes (FIG. 14A, p=0.06) and CCR7^−CD163^−CD206^+ BALF macrophages (FIG. 14C, p=0.04) compared to SIV-PAH^− controls. Moreover, increased numbers of CD14^dimCD16^+ non-classical monocytes (FIG. 14B, left panel, p=0.04) and CD14^+ CCR7^−CD163^−CD206^+ macrophages (FIG. 14D, left panel, p=0.03) correlate with increased pulmonary pressures in SIV/Uninfected controls at 6 mpi. Given the pleiotropic effects of statin upon monocyte and macrophage skewing and cytokine secretion, it was hypothesized that statins may decrease these populations which are associated with SIV-PAH.
as §1

[6] = system: SIVΔB670; test: Plasma viral load throughout SIV infection; format: in vivo, simian immunodeficiency virus (SIV)
Text: Therefore, peripheral blood CD4^+ T cell levels and plasma viral load throughout SIV infection were examined.
Animals. 28 adult Chinese rhesus macaques (Macaca mulatta) aged 6-10 years old were obtained from national primate centers or vendors and housed in accordance with the NIH Guide for the Care and Use of Laboratory Animals in a BSL2^+ primate facility at the University of Georgia (National Research Council Committee for the Update of the Guide for the Care and Use of Laboratory Animals, Guide for the Care and Use of Laboratory Animals (8th ed.) (National Academies Press National Academy of Sciences., 2011). Prior to admission to the study, all animals were screened and found negative for simian retroviruses and preexisting cardiovascular disease. Study Design and Statin treatment. All cohorts were infected with SIVΔB670 (1:100 in PBS), tissue culture infectious dose of 50% (TCID50)=2.6×10^5), intravenously or mucosally as previously described (Tarantelli et al. (2018); Schweitzer, F. et al. (2019)). […] All procedures were approved by the University of Georgia Institutional Animal Care and Use Committee. Hemodynamic measurements through right hearth catheterization. Right heart catheterization was performed and analyzed using a Swan-Ganz balloon wedge pressure catheter advanced through the right atrium, right ventricle, and pulmonary artery as previously described (Tarantelli et al). Flow Cytometry. Peripheral blood and bronchoalveolar lavage fluid (BALF) were collected at baseline (BL), 6 months post infection (mpi) and at study termination (10-12 mpi), and processed for flow cytometry as previously described (Board, K. F. et al. Experimental Pneumocystis carinii pneumonia in simian immunodeficiency virus-infected rhesus macaques. The Journal of infectious diseases 187, 576-588 (2003) and Kling, H. M. et al. Relationship of Pneumocystis jiroveci humoral immunity to prevention of colonization and chronic obstructive pulmonary disease in a primate model of HIV infection. Infection and immunity 78, 4320-4330 (2010)). CD14^dimCD16^+ non-classical monocytes and CCR7^−CD163^−CD206^+ BALF macrophages were identified by flow cytometry and calculated as previously described by Schweitzer, F. et al., supra). All analyses were performed using FlowJo Analysis software (Tree Star, Inc., Ashland, Oreg.). Cytokine measurement in plasma and BALF. Quantitative analysis of cytokines and chemokines in the plasma and BALF was performed using the Cytokine 29-Plex Monkey Panel (Invitrogen, Carlsbad, Calif.) according to the manufacturer's instructions. BALF analytes were normalized on the assumption that plasma and BALF have equal urea concentrations as previously described, using Quanti Chrom Urea Assay Kit (BioAssay Systems, Destin, Fla.) (Schweitzer, F. et al., supra). Histopathology and quantification of right ventricular and lung periarteriolar collagen deposition. 5 μm thick FFPE sections of the right heart and lung were cut and stained with Masson's trichrome and 0.1% Pico Sirius Red counterstained with Weigert's hematoxylin, to reveal fibrillar collagen, respectively by the UGA CVM Histopoathology Laboratory (Athens, Ga.). […] To quantify right ventricular collagen deposition in Masson's trichrome stained sections, 170 mm^2 regions were analyzed using Image J software (imagej.nih.gov/ij), with the threshold color plugin set to RGB; bright blue collagen was selected, converted to a binary image, and measured to quantify the collagen area. […]

[7] = system: CCR7−CD163−CD206+ BALF macrophages; test: Flow cytometry of BALF macrophages; format: in vivo, Macaca mulatta; conditions: Groups 2 and 3 at 6 mpi compared to both PAH+ and PAH− SIV/Untreated controls
Text: as §2, §1

[8] = statin-treated cohorts compared with SIV-PAH− controls
[9] = SIV/Statin Group 2, individual animals
[10] = SIV/Statin Group 3, individual animals

For `CC(C)c1c(C(=O)Nc2ccccc2)c(-c2ccccc2)c(-c2ccc(F)cc2)n1CC[C@@H](O)C[C@@H](O)CC(=O)O` [atorvastatin], the “levels of BALF TGF-β at 6 mpi” value [1] was “significantly lower”, the “right ventricle collagen deposition” value ([2]; both statin-treated cohorts compared to SIV-PAH+) was “significantly less collagen deposition” and the “right ventricle collagen deposition” value [2, 8] was “considerably less collagen deposition”. For the same compound, the “small pulmonary arteries collagen deposition” value ([3]; statin-treated cohorts compared to SIV-PAH+) was “significantly less collagen deposition”, the lung collagen deposition [3, 8] was “considerably less collagen deposition” and the “PAH Status” value [4, 9] was “PAH− (PAH is defined as mPAP≥25 mm Hg); also recorded: PAH+ (PAH is defined as mPAP≥25 mm Hg)”. For the same compound, the “Peak mPAP (mm Hg)” value [4, 9] was 15.2 mm Hg and 46.3 mm Hg and 23.2 mm Hg (2×) and 25.7 mm Hg and 19.2 mm Hg and 17.6 mm Hg and 20.2 mm Hg and 17.4 mm Hg and 16.6 mm Hg and 17.1 mm Hg and 22.0 mm Hg and 20.6 mm Hg and 20.7 mm Hg, the “Incidence PAH ≥ 25 mm Hg 6-12 mpi” value ([4]; SIV/Statin Group 2: atorvastatin 10 mg/day orally from 1 week prior to SIV infection) was 2 and the “Prevalence of PAH (% PAH+)” value ([4]; SIV/Statin Group 2: atorvastatin from 1 week prior to SIV infection) was 14.3%. For the same compound, the “Prevalence of PAH (% PAH+)” value ([4]; SIV/Statin Group 2: atorvastatin from 1 week prior to SIV infection, listed as Statin) was 14.3%, the “mPAP at 6 mpi of animals that developed elevated mPAP” value ([4]; SIV/Statin Group 2, monkey 3316 and monkey 2416) was 25.4 mm Hg and 46.3 mm Hg and the “terminal mPAP of animals that developed elevated mPAP” value ([4]; SIV/Statin Group 2, monkey 3316 and monkey 2416, study termination) was 25.7 mm Hg and 21.2 mm Hg. The “PAH Status” value [4, 10] was “PAH− (PAH is defined as mPAP≥25 mm Hg); also recorded: PAH+ (PAH is defined as mPAP≥25 mm Hg)”, the “Peak mPAP (mm Hg)” value [4, 10] was 21.4 mm Hg and 16.8 mm Hg and 13.2 mm Hg and 23.6 mm Hg and 45.5 mm Hg and 22.9 mm Hg and 24.1 mm Hg and 18.9 mm Hg and 20.2 mm Hg and 19.8 mm Hg and 24.4 mm Hg and 19.9 mm Hg and the “Incidence PAH ≥ 25 mm Hg 6-12 mpi” value ([4]; SIV/Statin Group 3: atorvastatin 10 mg/day orally from 4 months following SIV infection) was 1. The “Prevalence of PAH (% PAH+)” value ([4]; SIV/Statin Group 3: atorvastatin from 4 months following SIV infection) was 7.1%, the “Prevalence of PAH (% PAH+)” value ([4]; SIV/Statin Group 3: atorvastatin from 4 months following SIV infection, listed as Statin) was 7.1% and the “6 mpi mPAP of the animal that developed PAH” value ([4]; SIV/Statin Group 3, animal 2916) was 45.5. The “incidence of PAH” value ([4]; treatment initiated during the early chronic disease stage) was “reduced incidence of PAH compared to untreated animals”, the “development of SIV-associated PAH” value ([4]; treatment of healthy macaques prior to and throughout SIV infection) was “prevented the development of SIV-associated PAH” and the “number of CD14dimCD16+ non-classical monocytes” value [5] was “significantly lower”. For the same compound, the “Peak viral load (no. of RNA copies/mL)” value [6, 9] was 8.1 × 10^6 RNA copies/mL and 7.9 × 10^6 RNA copies/mL and 1.6 × 10^7 RNA copies/mL and 1.3 × 10^7 RNA copies/mL and 7.3 × 10^6 RNA copies/mL and 1.7 × 10^7 RNA copies/mL and 1.8 × 10^7 RNA copies/mL and 4.9 × 10^7 RNA copies/mL and 1.1 × 10^7 RNA copies/mL and 9.3 × 10^6 RNA copies/mL and 3.7 × 10^7 RNA copies/mL and 5.0 × 10^7 RNA copies/mL and 1.0 × 10^7 RNA copies/mL and 5.0 × 10^6 RNA copies/mL, the “Viral set point (no. of RNA copies/mL)” value [6, 9] was 3.0 × 10^4 RNA copies/mL and 6.1 × 10^3 RNA copies/mL and 1.8 × 10^6 RNA copies/mL and 1.7 × 10^6 RNA copies/mL (2×) and 9.9 × 10^5 RNA copies/mL and 2.7 × 10^5 RNA copies/mL and 1.3 × 10^4 RNA copies/mL and 8.8 × 10^4 RNA copies/mL and 3.5 × 10^5 RNA copies/mL and 4.6 × 10^4 RNA copies/mL and 2.9 × 10^6 RNA copies/mL and 1.4 × 10^5 RNA copies/mL and 1.2 × 10^5 RNA copies/mL and the “Peak viral load (no. of RNA copies/mL)” value ([6]; SIV/Statin Group 3 (treatment started 4 months following infection), individual animals) was 2.4 × 10^7 RNA copies/mL and 1.6 × 10^7 RNA copies/mL and 1.2 × 10^7 RNA copies/mL and 4.7 × 10^7 RNA copies/mL and 4.3 × 10^7 RNA copies/mL and 2.2 × 10^7 RNA copies/mL and 1.0 × 10^6 RNA copies/mL and 8.4 × 10^5 RNA copies/mL and 8.3 × 10^6 RNA copies/mL and 7.3 × 10^6 RNA copies/mL and 9.6 × 10^6 RNA copies/mL and 8.8 × 10^6 RNA copies/mL and 2.9 × 10^7 RNA copies/mL and 5.8 × 10^6 RNA copies/mL. For the same compound, the “Viral set point (no. of RNA copies/mL)” value [6, 10] was 1.4 × 10^5 RNA copies/mL and 4.1 × 10^3 RNA copies/mL and 1.1 × 10^6 RNA copies/mL and 7.8 × 10^2 RNA copies/mL and 1.4 × 10^6 RNA copies/mL and 1.2 × 10^7 RNA copies/mL and 1.5 × 10^4 RNA copies/mL and 3.0 × 10^2 RNA copies/mL and 1.1 × 10^5 RNA copies/mL and 1.8 × 10^6 RNA copies/mL and 4.4 × 10^5 RNA copies/mL and 2.8 × 10^3 RNA copies/mL and 4.0 × 10^5 RNA copies/mL and 9.0 × 10^3 RNA copies/mL, the “viral load compared to SIV/Untreated controls” value ([6]; both statin-treated cohorts, throughout SIV infection) was “did not significantly alter; also recorded: does not significantly affect” and the “number of CCR7−CD163−CD206+ BALF macrophages” value [7] was “significantly reduced”.
